Converted amounts (≈) assume the structure as drawn. Bridge positions count the residues as written; N and C are the ends. Square brackets hold non-standard residues; d marks the D form. Peptide text beside a SMILES is read from it. * marks the point of attachment. Benzoyl(4-OPh) = O=C(c1ccc(Oc2ccccc2)cc1)*; Phe(4-NH2) = Nc1ccc(C[C@H](N)C(=O)O)cc1; dGly(nOct) = CCCCCCCC[C@@H](N)C(=O)O; Octanoyl = CCCCCCCC(=O)*; Dab = NCC[C@H](N)C(=O)O
Key:
[1] = tested on: primary human renal proximal tubule epithelial (hPT) cells; assay: Nephrotoxicity assay, LDH release; assay type: cell-based
From the text: (§1) Primary human renal proximal tubule epithelial (hPT) cells were isolated and used for in vitro prediction of drug-induced nephrotoxicity[63],[64],[69] by measuring the release of metabolism enzymes, LDH and GGT, as previously described.[70]

HepG2 = details: CC50 HepG2 (µM)
[2] = tested on: primary human renal proximal tubule epithelial (hPT) cells; assay: Nephrotoxicity assay, GGT release; assay type: cell-based
From the text: as §1

[3] = tested on: K. pneumoniae CI 138-16357-20362, PmxR; assay: microbe, parasite or virus in culture; assay type: cell-based, Klebsiella pneumoniae
Method: (§2) Bacteria were either obtained from American Type Culture Collection (ATCC; Manassas, VA, USA) or independent academic clinical isolate collections, as listed in Table S2. Bacteria were cultured in nutrient broth (NB; Bacto Laboratories, catalog no. 234000) or Muller Hinton broth (MHB; Bacto Laboratories, catalog no. 211443) at 37 °C overnight with shaking (∼180 rpm). A sample of each culture was then diluted 50-fold in fresh MHB and incubated at 37 °C for 1.5–3 h with shaking (∼180 rpm). Compound stock solutions were prepared as 0.64 or 2.56 mg/mL in water. The compounds, at twice the final desired concentration, were serially diluted 2-fold across the wells of 96-well plates (Polystyrene, Corning, catalogue No. 3370). Mid log phase bacterial cultures (after 1.5–3 h incubation) were diluted to a final concentration of 5 × 10^5 colony forming units (CFU)/mL, and 50 μL was added to each well giving a final compound concentration range of 32 μg/mL to 0.015 μg/mL (128–0.06 μg/mL for colistin and polymyxin B against the polymyxin resistant clinical isolates). MICs were determined visually after 18 h of incubation at 37 °C, with the MIC defined as the lowest compound concentration at which no bacterial growth was visible.
(§3) Table S2. Bacterial strains used for Minimum Inhibitory Concentration (MIC) […]
(§4) Organism Strain Strain description Strain Source
(§5) Escherichia coli ATCC 25922 FDA strain Seattle 1946 ATCC
(§6) Klebsiella pneumoniae ATCC 13883 Control strain ATCC
(§7) Klebsiella pneumoniae ATCC 700603 Multi-drug resistant ATCC
(§8) Klebsiella pneumoniae BAA-2146 Metallo-beta-lactamase- ATCC
(§9) Acinetobacter baumannii ATCC 19606 Type strain ATCC
(§10) Pseudomonas aeruginosa ATCC 27853 Type strain ATCC
(§11) Pseudomonas aeruginosa FADDI-PA070 Clinical isolate, Nation and Li labs, polymyxin resistant Monash University
(§12) Clinical isolate, Wang Hengzhuang, Pseudomonas aeruginosa PA9704 polymyxin resistant University Hospital of […]
(§13) Ptyela Clinical isolate, Ilias Karaiskos and Acinetobacter baumannii Carbapenem & Helen Giamarellou
(§14) Clinical isolate, Medicine, Hygeia
(§15) Klebsiella pneumoniae Koprana Carbapenem, & General Hospital, […]
(§16) Clinical isolate, (Instituto Dante […]
(§17) polymyxin resistant Cardiologia, São […]

[4] = tested on: K. pneumoniae CI Koprana 100650661:1, PmxR; assay: microbe, parasite or virus in culture; assay type: cell-based, Klebsiella pneumoniae; details: carbapenem & polymyxin resistant clinical isolate; MHB, 5 × 10^5 CFU/mL, 18 h at 37 °C
Method: as §2, §3, §4, §5, §6, §7, §8, §9, §10, §11, §12, §13, §14, §15, §16, §17

[5] = tested on: S. aureus ATCC 25923, MSSA; details: MIC S. aureus ATCC 25923, MSSA (µg/mL)
[6] = tested on: K. pneumoniae CI 138-16357-20362, PmxR; details: MIC K. pneumoniae CI 138-16357-20362, PmxR (µg/mL)
[7] = tested on: K. pneumoniae CI Koprana 100650661:1, PmxR; details: MIC K. pneumoniae CI Koprana 100650661:1, PmxR (µg/mL)
[8] = tested on: A. baumannii CI Ptyela 100734512:2, PmxR; details: MIC A. baumannii CI Ptyela 100734512:2, PmxR (µg/mL)
[9] = tested on: P. aeruginosa PA9704, PmxR; details: MIC P. aeruginosa PA9704, PmxR (µg/mL)
A. baumannii ATCC 19606 = details: MIC A. baumannii ATCC 19606 (µg/mL)
K. pneumoniae ATCC 13883 = details: MIC K. pneumoniae ATCC 13883 (µg/mL)
[10] = tested on: P. aeruginosa FADDI-PA070, PmxR; details: MIC P. aeruginosa FADDI-PA070, PmxR (µg/mL)
P. aeruginosa ATCC 27853 = details: MIC P. aeruginosa ATCC 27853 (µg/mL)
E. coli ATCC 25922 = details: MIC E. coli ATCC 25922 (µg/mL)
[11] = at 100 μg/mL in the primary kidney cells
[12] = carbapenem & polymyxin resistant clinical isolate, MHB, 5 × 10^5 CFU/mL, 18 h at 37 °C

| MIC (P. aeruginosa ATCC 27853) | MIC (E. coli ATCC 25922) | Structure (SMILES) | release of LDH [1, 11] | LDH release CC50 ([1]; primary human kidney cells) | CC50 (HepG2) | release of GGT [2, 11] | GGT release CC50 ([2]; primary human kidney cells) | MIC K. pneumoniae CI 138-16357-20362, PmxR ([3]; CI 138-16357-20362, PmxR, 18 h) | MIC K. pneumoniae CI Koprana 100650661:1, PmxR [4] | MIC [5] | MIC [6] | MIC [7] | MIC K. pneumoniae CI 138-16357-20362, PmxR [3, 12] | MIC [8] | MIC [9] | MIC (A. baumannii ATCC 19606) | MIC (K. pneumoniae ATCC 13883) | MIC [10] |
| --- | --- | --- | --- | --- | --- | --- | --- | --- | --- | --- | --- | --- | --- | --- | --- | --- | --- | --- |
|  |  | CC(C)C[C@@H]1NC(=O)[C@@H](Cc2ccccc2)NC(=O)[C@H](CCN)NC(=O)[C@@H](NC(=O)[C@H](CCN)NC(=O)[C@@H](NC(=O)[C@H](CCN)NC(=O)c2ccc(Oc3ccccc3)cc2)[C@@H](C)O)CCNC(=O)[C@H]([C@@H](C)O)NC(=O)[C@H](CCN)NC(=O)[C@H](CCN)NC1=O [Compound 14] ({Benzoyl(4-OPh)}-[Dab]T[Dab][Dab][Dab][dF]L[Dab][Dab]T; lactam 4-C) | almost no release | >128 mg/L | 287 µM | almost no release | >128 mg/L | >32 mg/L | >32 mg/L | > 32 mg/L | > 32 mg/L | > 32 mg/L |  |  |  |  |  |  |
|  |  | CCCCCCCC(=O)N[C@@H](CCN)C(=O)N[C@H](C(=O)N[C@@H](CCN)C(=O)N[C@H]1CCNC(=O)[C@H]([C@@H](C)O)NC(=O)[C@H](CCN)NC(=O)[C@H](CCN)NC(=O)[C@H](CC(C)C)NC(=O)[C@@H](Cc2ccccc2)NC(=O)[C@H](CCCNC(=N)N)NC1=O)[C@@H](C)O [Compound 35] (Octanoyl-[Dab]T[Dab][Dab]R[dF]L[Dab][Dab]T; lactam 4-C) |  |  | > 300 µM |  |  |  | >32 mg/L | > 32 mg/L | > 32 mg/L | > 32 mg/L | >32 mg/L | > 32 mg/L | > 32 mg/L | > 32 mg/L | > 32 mg/L | > 32 mg/L |
|  |  | CCCCCCCC(=O)N[C@@H](CCN)C(=O)N[C@H](C(=O)N[C@@H](CCN)C(=O)N[C@H]1CCNC(=O)[C@H]([C@@H](C)O)NC(=O)[C@H](Cc2ccc(N)cc2)NC(=O)[C@H](CCN)NC(=O)[C@H](CC(C)C)NC(=O)[C@@H](Cc2ccccc2)NC(=O)[C@H](CCN)NC1=O)[C@@H](C)O [Compound 20] (Octanoyl-[Dab]T[Dab][Dab][Dab][dF]L[Dab][Phe(4-NH2)]T; lactam 4-C) |  |  | > 300 µM |  |  |  | >32 mg/L | > 32 mg/L | > 32 mg/L | > 32 mg/L | >32 mg/L | > 32 mg/L | > 32 mg/L | > 32 mg/L | > 32 mg/L | > 32 mg/L |
| 2 mg/L (≈ 1.65 µM) | 2 mg/L (≈ 1.65 µM) | CCCCCCCC[C@H]1NC(=O)[C@H](CCN)NC(=O)[C@@H](NC(=O)[C@H](CCN)NC(=O)[C@@H](NC(=O)[C@H](CCN)NC(=O)CCCCCCC)[C@@H](C)O)CCNC(=O)[C@H]([C@@H](C)O)NC(=O)[C@H](CCN)NC(=O)[C@H](CCN)NC(=O)[C@H](CC(C)C)NC1=O (Octanoyl-[Dab]T[Dab][Dab][Dab][dGly(nOct)]L[Dab][Dab]T; lactam 4-C) |  |  | 254 µM |  |  |  |  | 16 mg/L (≈ 13.2 µM) | 16 mg/L (≈ 13.2 µM) | 16 mg/L (≈ 13.2 µM) |  | 16 mg/L (≈ 13.2 µM) | 8 mg/L (≈ 6.6 µM) |  | 2 mg/L (≈ 1.65 µM) |  |
